What was measured:
HCV NS5A protein [1] = biological target: T1, HCV NS5A protein (Hepatitis C virus genotype 1b, UniProt Q9WMX2, S2204I); assay: NS5A protein levels by Western blot in Con1 cells; type: cell-based; conditions: ZnMP 0, 1, 5, 10 μM, 4 hours, FIG. 1B
T1 construct: processed into structural (C, E1, E2) and nonstructural (NS2, NS3, NS4A, NS4B, NS5A and NS5B) proteins; expressed in transfected cells; host or cells: Con1 cells (Huh-7.5 with the full-length genotype 1b replicon)
Excerpt: Bartenschlager (University of Heidelberg, Heidelberg, Germany).
(§1) Biochim Biophys Acta 2008; 1779:195-203.

HCV NS5A protein [2] = biological target: T2, HCV NS5A protein (Hepatitis C virus genotype 2a, UniProt Q99IB8); assay: NS5A protein levels in Huh-7.5 cells transfected with J6/JFH1 RNA; type: cell-based; conditions: J6/JFH1 RNA transfected Huh-7.5 cells, 4 or 24 h, FIGS. 8A-8D
T2 construct: processed into structural (C, E1, E2) and nonstructural (NS2, NS3, NS4A, NS4B, NS5A and NS5B) proteins; expressed in transfected cells; host or cells: Huh-7.5 cells transfected with in vitro transcribed J6/JFH1 RNA
T2 sequence (Q99IB8 1977-2442): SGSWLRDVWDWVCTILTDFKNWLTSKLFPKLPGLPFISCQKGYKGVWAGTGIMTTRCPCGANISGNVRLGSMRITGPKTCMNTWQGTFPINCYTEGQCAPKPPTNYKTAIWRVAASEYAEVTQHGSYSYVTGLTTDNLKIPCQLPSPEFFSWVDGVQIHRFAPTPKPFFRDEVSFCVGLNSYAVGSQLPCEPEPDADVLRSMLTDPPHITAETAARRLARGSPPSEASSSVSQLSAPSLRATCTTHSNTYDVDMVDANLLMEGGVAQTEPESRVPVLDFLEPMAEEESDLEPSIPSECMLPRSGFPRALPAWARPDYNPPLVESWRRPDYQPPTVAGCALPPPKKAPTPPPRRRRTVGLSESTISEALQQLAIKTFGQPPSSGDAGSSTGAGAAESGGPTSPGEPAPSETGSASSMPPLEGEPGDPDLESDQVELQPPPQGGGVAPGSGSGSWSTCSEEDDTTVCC
Excerpt: as §1
(§2) Rice (the Rockefeller University, New York, N.Y.).

J6/JFH1 HCV RNA = assay: HCV RNA by qRT-PCR in Huh-7.5 cells transfected with J6/JFH1 RNA; type: cell-based, hepatitis C virus; conditions: 10 μM, FIG. 8E
Method: as §2
(§3) Total RNA from treated cells was extracted and cDNA was synthesized as described in Hou et al. Real time quantitative RT-PCR was performed using a MyiQ™ Single Color Real-Time PCR Detection System from Bio-Rad (Hercules, Calif.) and iQ™ SYBR Green Supermix Real-Time PCR kit (Bio-Rad). Samples without template and without reverse transcriptase were included as negative controls, which, as expected, produced negligible signals (Ct values>35). Fold-change values were calculated by comparative Ct analysis after normalizing for the quantity of GAPDH in the same samples.

J6/JFH1 HCV = assay: HCV RNA by qRT-PCR in Huh-7.5 cells infected with J6/JFH1 HCV; type: cell-based, hepatitis C virus; conditions: 10 μM, FIG. 8F
Method: as §2, §3

9-13 cells = assay: CellTiter-Glo luminescent cell viability assay; type: cell-based, human
Method: The effect of ZnMP on cytotoxicity of treated cells was measured using CellTiter-Glo® Reagent by determining the number of viable cells based on quantitation of the ATP present, which signaled the presence of metabolically active cells. Cells were plated into a 96-well plate with 2500 to 5000 cells/well 24 hours before treatment. Cells were treated with indicated concentrations of ZnMP for 2, 6 and 24 hours in triplicate, an equal volume of CellTiter-Glo® Reagent was added to each well of cell culture medium. The luminescence was read on a Synergy HT microplate reader from Bio-Tek (Winooski, Vt.) with integration time set for 0.25 to 1 second. Decreases in luminescence were taken as an index of cellular cytotoxicity.
In this Example, the cytotoxicity of metalloporphyrins was evaluated. 9-13 cells were seeded into a 96-well plate 24 hours before treatment. Cells were incubated with the indicated concentrations of ZnMP for 0, 2, 6, 24 hours, and CellTiter-Glo® Reagent was added for CellTiter-Glo luminescent cell viability assay on a Synergy HT microplate reader with integration time set for 0.25 to 1 second. Decreases in luminescence were taken as an index of cellular cytotoxicity. * differs from vehicle, P<0.05, Data represent means±SE of triplicate determinations. […] Therefore, ZnMP concentrations not exceeding 20 μM for up to 6 hours or up to 10 μM for up to 24 hours were used.

HCV core protein = conditions: CNS3 cells, 0, 1, 5, 10 μM, 4 hours, FIG. 1C
Method: 9-13 cells, containing a replicating HCV nonstructural region, stably express HCV NS3 to NS5B. CNS3 cells stably express HCV core to NS3 (amino acid residues 1 through 1233 of the Con1 isolate; Gene Bank accession number AJ238799). Huh-7/T7 cells constitutively express the bacteriophage T7 RNA polymerase. The cells were maintained in DMEM supplemented with 10% (v/v) FBS and 500 μg/mL G418 for 9-13 cells, 10 μg/mL zeocin for CNS3 cells or 5 μg/mL zeocin for Huh-7/T7 cells. […] The Con1 cell line is a Huh-7.5 cell population containing the full-length HCV genotype 1b replicon with the highly adaptive serine to isoleucine substitution at amino acid 2204 of the polypeptide. […]
In brief, total proteins (30-50 μg) were separated on 4-15% gradient SDS-PAGE gels. […] Data are expressed as percentages of the controls (corresponding to the value obtained with the vehicle-treated cells), which were assigned values of one.
NS5A protein levels in 9-13 and Con1 cells, core protein levels in CNS3 cells, and NS5A and core protein levels in Huh-7/T7 cells transfected with pFK-Con1/GND (a plasmid encoding a replication deficient variant of Con1) exposed to different concentrations of ZnMP (0, 1, 5, 10 μM) for 4 hours were evaluated. […]

HCV NS5A protein [3] = biological target: T3, HCV NS5A protein (Hepatitis C virus genotype 1b, UniProt Q9WMX2); assay: NS5A protein levels in Huh-7/T7 cells transfected with pFK-Con1/GND; type: cell-based; design: processed into structural (C, E1, E2) and nonstructural (NS2, NS3, NS4A, NS4B, NS5A and NS5B) proteins; expressed in transfected cells; host or cells: Huh-7/T7 cells transiently transfected with pFK-Con1/GND; conditions: 24 h, FIG. 7C
T3 sequence (Q9WMX2 1973-2419): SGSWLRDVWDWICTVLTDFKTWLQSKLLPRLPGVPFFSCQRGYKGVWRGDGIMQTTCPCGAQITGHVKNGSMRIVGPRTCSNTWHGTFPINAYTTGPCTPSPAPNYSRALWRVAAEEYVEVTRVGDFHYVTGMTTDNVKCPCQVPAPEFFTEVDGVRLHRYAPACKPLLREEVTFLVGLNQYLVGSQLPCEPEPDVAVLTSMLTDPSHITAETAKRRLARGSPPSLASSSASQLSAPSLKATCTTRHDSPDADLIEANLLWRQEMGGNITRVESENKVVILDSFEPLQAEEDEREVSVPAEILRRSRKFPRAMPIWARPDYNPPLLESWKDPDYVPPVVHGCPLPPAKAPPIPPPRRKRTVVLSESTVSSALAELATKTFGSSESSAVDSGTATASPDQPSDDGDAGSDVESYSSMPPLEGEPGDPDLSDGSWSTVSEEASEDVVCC
Excerpt: as §1
Total RNA and proteins were extracted.

HCV NS5A protein [4] = biological target: T3, HCV NS5A protein; assay: polyubiquitination of NS5A by immunoprecipitation and immunoblot in 9-13 cells; type: cell-based; design: processed into structural (C, E1, E2) and nonstructural (NS2, NS3, NS4A, NS4B, NS5A and NS5B) proteins; expressed in transfected cells; host or cells: 9-13 cells (human hepatoma cells with a replicating HCV NS3-NS5B region)
Method: Immunoprecipitation was carried out according to the Manufacturer's protocol. Briefly, cells were harvested in cold radioimmunoprecipitation assay (RIPA) buffer (50 mM Tris-HC1 [pH 7.4], 150 mM NaCl, 1 mM EDTA, 0.25% sodium deoxycholate, 1% IGEPAL CA-630, 1 mM PMSF, 1 mM NaF, 1 mM Na3VO4 and 1 μg/ml each of aprotinin, leupeptin, and pepstatin). The samples were pre-cleared with Protein A/G Agarose for 10 min at 4° C. and subsequently incubated while gently rotating at 4° C. overnight with primary antibody, followed by Protein A/G beads for 1 h at 4° C. Beads were spun down and washed twice with RIPA buffer. Protein samples were separated by electrophoresis on 4-15% SDS-PAGE gels, and transferred to PVDF membrane, conjugated ubiquitin was detected as described for Western blot analysis using anti-ubiquitin antibody.
This Example investigates whether ZnMP induces polyubquitination of NS5A to gain insight into the mechanism by which ZnMP mediates degradation of NS5A protein. 9-13 cells were treated without or with 10 μM ZnMP for 4 h. Total proteins were extracted for subsequent Western blot or immunoprecipitation analysis. Immunoprecipitation was carried out using anti-HCV NS5A antibody. Ubiquitin conjugation of NS5A [polyubiquitinated NS5A (Ub)n-NS5A]was examined with immunoprecipitation using an anti-HCV NS5A antibody and immunoblot using an anti-ubiquitin antibody. […] In FIG. 6B, ubiquitination of NS5A following ZnMP treatment, or vehicle (DMSO) only was compared. The positions of molecular mass markers (in kilodaltons) are indicated to the left of the gel. The bracket indicates polyubiquitinated NS5A. Asterisks indicate cross-reacting immunoglobulin heavy chain. […] These bands may represent polyubiquitinated NS5A.

T1 sequence (Q9WMX2 1973-2419 S2204I): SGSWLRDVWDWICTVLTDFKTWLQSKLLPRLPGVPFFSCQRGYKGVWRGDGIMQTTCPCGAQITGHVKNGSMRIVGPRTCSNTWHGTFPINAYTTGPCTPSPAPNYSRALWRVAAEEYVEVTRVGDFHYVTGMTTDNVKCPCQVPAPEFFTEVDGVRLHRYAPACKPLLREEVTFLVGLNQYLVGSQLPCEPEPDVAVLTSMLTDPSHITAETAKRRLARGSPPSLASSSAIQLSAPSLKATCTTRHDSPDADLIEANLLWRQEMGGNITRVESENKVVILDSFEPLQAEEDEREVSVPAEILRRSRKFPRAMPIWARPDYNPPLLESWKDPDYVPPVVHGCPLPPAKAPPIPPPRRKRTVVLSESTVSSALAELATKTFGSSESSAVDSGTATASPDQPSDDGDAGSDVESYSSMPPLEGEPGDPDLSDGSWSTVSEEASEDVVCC

SMILES: CCC1=C(C)c2cc3[nH]c(cc4nc(cc5[n-]c(cc1n2)c(C)c5CCC(=O)[O-])C(CCC(=O)[O-])=C4C)c(C)c3CC.[H+].[Zn+2] [ZnMP, Zinc mesoporphyrin]
- NS5A protein levels (HCV NS5A protein [1]): marked decrease
- NS5A protein levels (HCV NS5A protein [2]): rapid and profound decrease
- decrease of HCV RNA levels (J6/JFH1 HCV RNA): ~70%
- decrease of HCV RNA levels (J6/JFH1 HCV): ~90%
- cell viability (9-13 cells; 20 μM, 2-6 hours): no significant effect
- cytotoxicity (9-13 cells; 20 μM, 24 hours, p<0.05): significant cytotoxicity
- cell viability (9-13 cells; 1-10 μM, 2-24 hours): no significant effect
- HCV core protein levels (HCV core protein): no detectable effects
- NS5A protein levels (HCV NS5A protein [3]): markedly decreased
- polyubquitination of NS5A (summary statement) (HCV NS5A protein [4]): induce polyubquitination
- polyubquitination of NS5A (HCV NS5A protein [4]; 9-13 cells, 10 μM, 4 h, FIG. 6B): induce polyubquitination

Reference: US20100086519A1, “Treatment of Hepatitis C Infection With Metalloporphyrins” (The Charlotte-Mecklenburg Hospital Authority d/b/a …, priority 2008, published 2010)
